Experimental data published in patent US9708267B2, “Activators of human pyruvate kinase” (The United States of America, as represented by the …, priority 2010, dated 2017).
Where two headings read alike, the source gives them in different places. One block for each molecule: values may come before it.

What was measured:
Type in all cases: biochemical
hPK, M2 = hPK, M2 (Homo sapiens, UniProt P14618); test: luminescent pyruvate kinase-luciferase coupled assay (qHTS); details: for AC50: 0.1 mM ADP, 0.5 mM PEP; for Emax: maximum response (activation), read-out: Max. Res.; for activation at 57 µM / hPK, M2 Max. Res.: % activation at 57 μM of compound; for activation at 57 µM: read-out: hPK, M2 Max. Res.
Chain of hPK, M2 (P14618 whole entry): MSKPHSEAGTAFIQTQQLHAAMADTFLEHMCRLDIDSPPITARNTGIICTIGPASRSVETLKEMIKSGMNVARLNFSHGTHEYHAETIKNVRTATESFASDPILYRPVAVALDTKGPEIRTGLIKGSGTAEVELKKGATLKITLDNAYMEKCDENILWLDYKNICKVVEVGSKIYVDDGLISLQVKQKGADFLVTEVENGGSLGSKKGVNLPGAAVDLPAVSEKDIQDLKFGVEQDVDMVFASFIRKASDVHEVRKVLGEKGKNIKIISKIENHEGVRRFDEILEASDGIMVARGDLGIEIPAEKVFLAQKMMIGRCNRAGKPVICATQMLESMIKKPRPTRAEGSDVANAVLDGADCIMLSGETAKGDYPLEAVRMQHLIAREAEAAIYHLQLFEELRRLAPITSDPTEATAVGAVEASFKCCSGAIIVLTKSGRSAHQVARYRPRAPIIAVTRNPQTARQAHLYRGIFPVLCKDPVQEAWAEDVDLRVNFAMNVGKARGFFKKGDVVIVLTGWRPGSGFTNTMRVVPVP
Description: AC50 values were determined utilizing the luminescent pyruvate kinase-luciferase coupled assay (Inglese, J. et al, Quantitative high-throughput screening: a titration-based approach that efficiently identifies biological activities in large chemical libraries. Proc. Natl. Acad. Sci. U.S.A. 2006, 103, 11473-11478).
Luminescent Pyruvate Kinase-Luciferase Coupled Assay.
(§1) Production of a luminescent signal based on the generation of ATP by pyruvate kinase was determined by using the ATP-dependent enzyme firefly luciferase. Three μL of substrate mix (at r.t.) in assay buffer (50 mM imidazole pH 7.2, 50 mM KCl, 7 mM MgCl2, 0.01% tween 20, 0.05% BSA) was dispensed into Kalypsys (San Diego, Calif., USA) white solid bottom 1,536 well microtiter plates using a bottle-valve solenoid-based dispenser (Kalypsys). The final concentrations of substrates in the assay were 0.1 mM ADP and 0.5 mM PEP. Twenty-three nL of compound in DMSO were delivered with a 1,536-pin array tool, and 1 μL of enzyme mix in assay buffer (final concentration, 0.1 nM pyruvate kinase, 50 mM imidazole pH 7.2, 0.05% BSA, 4° C.) was added. Microtiter plates were incubated at r.t. for 1 hour and 2 uL of luciferase detection mix (Kinase-Glo from Promega, Madison, Wis., USA) at 4° C. protected from light, was added and luminescence was read with a ViewLux (Perkin Elmer, Waltham, Mass., USA) using a 2 second exposure/plate (with 2× binning). The final concentration of DMSO was 0.5% and found not to affect the assay signal.
Data was normalized for AC50 values to control columns containing uninhibited enzyme (n), and AC100 inhibition (i) according the following equation: Activation (%)=[(c−n)/(n−i)]*100 where c=compound, n=DMSO neutral, i=no enzyme control. A % activity of 100% is approximately a 2-fold increase over basal assay signal (% Activation by FBP was variable but averaged 100%). Monitoring of activation was accomplished using enzyme at 3× the final concentration.
All compounds were screened using a qHTS approach, where compounds are assayed using at least seven concentrations to generate concentration-response curves for every compounds. Briefly, qHTS uses an inter-plate dilution method where the first plate contains the highest concentration of a set of compounds in DMSO, while subsequent plates contain the same compounds in the same well locations, but at successive lower concentrations. Using the protocol outlined above, the rate was calculated as a plate throughput of 18 plates/hr or approximately 7 samples/sec on the Kalypsys robotic system which means that a 7 point CRC was obtained every second on the robotic system.

PKL = PKL (Homo sapiens, UniProt P30613); test: luminescent pyruvate kinase-luciferase coupled assay, PKL isoform; details: same assay system as for PKM2
Chain of PKL (P30613 1-543 isoform P30613-2): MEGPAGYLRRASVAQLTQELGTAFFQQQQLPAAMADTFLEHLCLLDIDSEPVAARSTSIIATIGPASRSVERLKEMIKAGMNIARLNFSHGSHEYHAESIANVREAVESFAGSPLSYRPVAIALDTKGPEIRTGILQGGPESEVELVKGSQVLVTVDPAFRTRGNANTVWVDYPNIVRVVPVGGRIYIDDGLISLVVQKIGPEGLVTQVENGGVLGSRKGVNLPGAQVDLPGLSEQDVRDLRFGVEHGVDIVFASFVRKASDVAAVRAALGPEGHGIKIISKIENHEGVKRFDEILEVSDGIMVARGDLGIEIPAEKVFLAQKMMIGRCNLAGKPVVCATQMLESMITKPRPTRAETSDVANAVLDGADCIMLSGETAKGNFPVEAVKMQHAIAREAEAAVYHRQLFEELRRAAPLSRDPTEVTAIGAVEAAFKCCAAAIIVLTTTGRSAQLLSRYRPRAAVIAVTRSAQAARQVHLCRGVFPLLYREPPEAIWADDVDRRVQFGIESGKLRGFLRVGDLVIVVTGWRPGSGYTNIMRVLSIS
Description: as §1
(§2) The same assay system was utilized to examine the activity of compound 4 and all related analogs versus PKL, PKM1 and PKR pyruvate kinase isoforms. No activity for any of the compounds were found against PKL, PKM1, or PKR.

PKM1 = PKM1 (Homo sapiens, UniProt P14618); test: luminescent pyruvate kinase-luciferase coupled assay, PKM1 isoform; details: same assay system as for PKM2
Chain of PKM1 (P14618 1-531 isoform P14618-2): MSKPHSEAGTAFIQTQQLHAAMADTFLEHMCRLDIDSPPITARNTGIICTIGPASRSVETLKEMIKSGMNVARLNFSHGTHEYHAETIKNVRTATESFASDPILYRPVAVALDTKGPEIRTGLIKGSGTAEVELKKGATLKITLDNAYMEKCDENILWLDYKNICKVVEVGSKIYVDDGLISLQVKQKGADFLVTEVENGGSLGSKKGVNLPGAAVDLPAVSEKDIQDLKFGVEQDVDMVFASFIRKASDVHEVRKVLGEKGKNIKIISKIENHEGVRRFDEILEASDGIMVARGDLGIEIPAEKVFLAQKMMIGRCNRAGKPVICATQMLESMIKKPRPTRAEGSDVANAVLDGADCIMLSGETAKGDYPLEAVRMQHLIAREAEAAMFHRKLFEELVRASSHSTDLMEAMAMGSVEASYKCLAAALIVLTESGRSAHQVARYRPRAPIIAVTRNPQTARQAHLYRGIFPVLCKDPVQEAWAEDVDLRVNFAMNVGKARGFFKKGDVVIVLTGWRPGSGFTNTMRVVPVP
Description: as §1, §2

PKR = PKR (Homo sapiens, UniProt P30613); test: luminescent pyruvate kinase-luciferase coupled assay, PKR isoform; details: same assay system as for PKM2
Chain of PKR (P30613 whole entry, canonical isoform): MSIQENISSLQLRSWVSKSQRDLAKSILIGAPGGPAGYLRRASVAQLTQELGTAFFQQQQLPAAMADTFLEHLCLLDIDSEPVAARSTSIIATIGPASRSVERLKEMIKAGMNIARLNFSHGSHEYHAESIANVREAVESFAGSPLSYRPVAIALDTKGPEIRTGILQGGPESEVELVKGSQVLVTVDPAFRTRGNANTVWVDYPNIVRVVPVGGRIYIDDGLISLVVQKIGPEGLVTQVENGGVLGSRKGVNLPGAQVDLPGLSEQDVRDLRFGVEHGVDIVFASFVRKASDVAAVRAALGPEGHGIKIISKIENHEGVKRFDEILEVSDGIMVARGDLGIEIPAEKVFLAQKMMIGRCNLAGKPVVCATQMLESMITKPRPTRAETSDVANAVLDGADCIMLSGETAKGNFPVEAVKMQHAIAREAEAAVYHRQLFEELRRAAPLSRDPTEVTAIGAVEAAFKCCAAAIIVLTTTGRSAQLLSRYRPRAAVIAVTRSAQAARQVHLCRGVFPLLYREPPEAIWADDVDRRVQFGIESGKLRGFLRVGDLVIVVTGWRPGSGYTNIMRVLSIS
Description: as §1, §2

[1] = Table 3, mean of three replicate experiments, read-out: hPK, M2 AC50
[2] = Table 3, mean of three replicate experiments
[3] = Table 2, mean of three replicate experiments, read-out: hPK, M2 AC50
[4] = Table 2, mean of three replicate experiments
[5] = Table 1, mean of three replicate experiments, read-out: hPK, M2 AC50
[6] = Table 1, mean of three replicate experiments

SMILES: COc1ccccc1NS(=O)(=O)c1ccc2c(c1)CCC(=O)N2 [Compound 25, N-(2-methoxyphenyl)-2-oxo-1,2,3,4-tetrahydroquinoline-6-sulfonamide]
AC50 (hPK, M2; [3]): 21 µM
activation at 57 µM (hPK, M2; [4]): 60%

SMILES: Cc1ccc(NS(=O)(=O)c2ccc3c(c2)CCCC(=O)N3)cc1C [Compound 6, N-(3,4-dimethylphenyl)-2-oxo-2,3,4,5-tetrahydro-1H-benzo[b]azepine-7-sulfonamide]
AC50 (hPK, M2; [5]): 18 µM
activation at 57 µM (hPK, M2; [6]): 66%

SMILES: Cc1ccc(NS(=O)(=O)c2ccc3c(c2)CCC(=O)N3)cc1C [Compound 4, N-(3,4-dimethylphenyl)-2-oxo-1,2,3,4-tetrahydroquinoline-6-sulfonamide]
AC50 (hPK, M2; [5]): 0.65 µM
activation at 57 µM (hPK, M2; [6]): 104%
hPK, M2 Max. Res. (hPK, M2; [4]): 104%
hPK, M2 Max. Res. (hPK, M2; [2]): 104%
activity against PKL (PKL): No activity
activity against PKM1 (PKM1): No activity
activity against PKR (PKR): No activity

SMILES: Cc1ccc(NS(=O)(=O)c2cc3c(cc2C)NC(=O)CO3)cc1C [Compound 39, N-(3,4-dimethylphenyl)-6-methyl-3-oxo-3,4-dihydro-2H-benzo[b][1,4]oxazine-7-sulfonamide]
AC50 (hPK, M2; [1]): 1.2 µM
activation at 57 µM (hPK, M2; [2]): 106%

SMILES: Cc1ccc(NS(=O)(=O)c2ccc3c(c2)n(C)c(=O)n3C)cc1C [Compound 10, N-(3,4-dimethylphenyl)-1,3-dimethyl-2-oxo-2,3-dihydro-1H-benzo[d]imidazole-5-sulfonamide]
AC50 (hPK, M2; [5]): 1.8 µM
activation at 57 µM (hPK, M2; [6]): 100%

SMILES: Cc1ccc(NS(=O)(=O)c2cc3c(cc2N(C)C)NC(=O)CC3)cc1C [Compound 32, 7-(dimethylamino)-N-(3,4-dimethylphenyl)-2-oxo-1,2,3,4-tetrahydroquinoline-6-sulfonamide]
AC50 (hPK, M2; [1]): 0.52 µM
activation at 57 µM (hPK, M2; [2]): 106%

SMILES: O=C1CCc2cc(S(=O)(=O)Nc3ccc4c(c3)OCCO4)ccc2N1 [Compound 29, N-(2,3-dihydrobenzo[b][1,4]dioxin-6-yl)-2-oxo-1,2,3,4-tetrahydroquinoline-6-sulfonamide]
AC50 (hPK, M2; [3]): 16 µM
activation at 57 µM (hPK, M2; [4]): 86%

Other lines, results leading:

AC50 (hPK, M2; Table 4, read-out: AC50): 0.32 µM
Emax (hPK, M2; Table 4): 106%
SMILES: Cc1ccc(NS(=O)(=O)c2cc3c(cc2NC(C)C)NC(=O)CC3)cc1C [Compound 65, N-(3,4-dimethylphenyl)-7-(isopropylamino)-2-oxo-1,2,3,4-tetrahydroquinoline-6-sulfonamide]

AC50 (hPK, M2; [1]): 20.6 µM
activation at 57 µM (hPK, M2; [2]): 36%
SMILES: Cc1ccc(NS(=O)(=O)c2cc3c(cc2-c2ccccc2)NC(=O)CO3)cc1C [Compound 40, N-(3,4-dimethylphenyl)-3-oxo-6-phenyl-3,4-dihydro-2H-benzo[b][1,4]oxazine-7-sulfonamide]

AC50 (hPK, M2; Table 4, read-out: AC50): 0.09 µM
Emax (hPK, M2; Table 4): 131%
SMILES: Cc1ccc(NS(=O)(=O)c2cc3c(cc2N[C@@H](C)CO)NC(=O)CC3)cc1C [Compound 68, (S)—N-(3,4-dimethylphenyl)-7-(1-hydroxypropan-2-ylamino)-2-oxo-1,2,3,4-tetrahydroquinoline-6-sulfonamide]

AC50 (hPK, M2; Table 4, read-out: AC50): 3.66 µM
Emax (hPK, M2; Table 4): 109%
SMILES: O=C1CCc2cc(S(=O)(=O)Nc3ccc(Cl)c(Cl)c3)c(F)cc2N1 [Compound 54, N-(3,4-dichlorophenyl)-7-fluoro-2-oxo-1,2,3,4-tetrahydroquinoline-6-sulfonamide]
